The text below walks through data of patent EP0165781A1, “Aromatase inhibiting N-substituted imidazole derivatives” (ELI LILLY AND COMPANY, priority 1984, dated 1985).

For this test, the target named is T1, aromatase (Rattus norvegicus, UniProt P22443).
T1 construct: ovarian microsomes are obtained from rats treated with pregnant mares serum gonadotropin; from tissue; host or cells: ovarian microsomes of rats treated with pregnant mares serum gonadotropin
T1 sequence (P22443 1-508): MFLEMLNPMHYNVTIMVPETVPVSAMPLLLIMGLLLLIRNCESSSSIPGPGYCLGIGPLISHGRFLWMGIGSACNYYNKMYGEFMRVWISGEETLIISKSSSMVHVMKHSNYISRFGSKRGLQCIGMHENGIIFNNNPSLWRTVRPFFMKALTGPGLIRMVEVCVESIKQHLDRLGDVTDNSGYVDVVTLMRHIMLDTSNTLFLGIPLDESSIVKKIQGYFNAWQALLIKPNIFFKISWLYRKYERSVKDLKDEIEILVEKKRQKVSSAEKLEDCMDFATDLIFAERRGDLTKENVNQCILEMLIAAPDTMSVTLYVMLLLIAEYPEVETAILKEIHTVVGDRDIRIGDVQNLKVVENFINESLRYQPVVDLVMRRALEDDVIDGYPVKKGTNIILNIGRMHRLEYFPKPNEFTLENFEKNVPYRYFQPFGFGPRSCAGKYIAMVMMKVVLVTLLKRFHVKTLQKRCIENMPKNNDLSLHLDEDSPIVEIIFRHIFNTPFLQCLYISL
Put plainly: isolated rat ovarian microsome aromatase inhibition (modified method of Brodie et al.). The format is biochemical. The following applies: rat ovarian microsomes; substrate androstenedione 0.1 µM; [3H]-H2O release; NADPH generating system; read-out: concentration of inhibitor required to produce a 50% inhibition of enzyme activity (EC50). As to the method: In this test system, ovarian microsomes are obtained from rats treated with pregnant mares serum gonadotropin. Test compounds are added to reaction vials containing […] 4-androstene-3,17-dione, 100,000 dpm 1,2[^3H]-androstenedione, the microsomes and a NADPH generating system. The concentrations of the inhibitors tested ranged between […]. […] Potency is determined based on the concentration of inhibitor in µM required to produce a 50% inhibition of enzyme activity (EC50) when the concentration of substrate (androstenedione) is 0.1 µM.

As to `CC(=O)N1CCN(c2ccc(OCC3COC(Cn4ccnc4)(c4ccc(Cl)cc4Cl)O3)cc2)CC1` (stereo not shown) [ketoconazole, 1-acetyl-4-[4-([2-(2,4-dichlorophenyl)-2-(1H-imidazol-1-ylmethyl)-1,3-dioxolan-4-yl]methoxy)-phenyl]piperazine], the EC50 is 1100 nM.
